According to the supplement of paper PMC9262897, “Low-cost anti-mycobacterial drug discovery using engineered E. coli” (Nature Communications, 2022):

Assays:
[1] = system: E. coli TESEC strain (Mtb target enzyme); test: growth (OD600 after 10 h); higher = more growth
Protocol: (§1)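 Chemical-genetic validation profiles: TESEC strains (Mtb Asd or DapB, arabinose-inducible) or the wild-type control grown in a two-dimensional dilution series of drug (µM) and arabinose. Growth is read as OD600 after 10 h in triplicate.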

[2] = system: E. coli wild-type control; test: growth (OD600 after 10 h); higher = more growth
Protocol: as §1

CC/C(=C(/CC)c1ccc(O)cc1)c1ccc(O)cc1 [Diethylstilbestrol] (TESEC target enzyme: Mtb Asd)
growth
Details | drug 0.7 µM | drug 1.5 µM | drug 3.5 µM | drug 7.8 µM | drug 17.6 µM | drug 39.5 µM | drug 88.9 µM
[1], arabinose 15560 nM | 0.236 | 0.214 | – | – | – | – | –
[1], arabinose 28008 nM | 0.223 | 0.157 | – | – | – | – | –
[1], arabinose 50414 nM | 0.238 | 0.191 | – | – | – | – | –
[1], arabinose 90744 nM | 0.252 | 0.218 | – | – | – | – | –
[1], arabinose 163340 nM | 0.254 | 0.227 | – | – | – | – | –
[1], arabinose 294012 nM | 0.29 | 0.222 | – | – | – | – | –
[1], arabinose 529221 nM | 0.207 | 0.214 | – | – | – | – | –
[1], arabinose 952599 nM | 0.2 | 0.228 | – | – | – | – | –
[1], arabinose 1714678 nM | 0.2038 | 0.208 | – | – | – | – | –
[1], arabinose 3086420 nM | 0.177 | 0.202 | – | – | – | – | –
[1], arabinose 5555556 nM | 0.168 | 0.198 | – | – | – | – | –
[1], arabinose 10000000 nM | 0.174 | 0.184 | – | – | – | – | –
[2], arabinose 15560 nM | 0.278 | 0.244 | 0.211 | 0.134 | 0.106 | 0.077 | –
[2], arabinose 28008 nM | 0.283 | 0.225 | 0.192 | 0.208 | 0.109 | 0.0887 | –
[2], arabinose 50414 nM | 0.271 | 0.23 | 0.192 | 0.149 | 0.185 | 0.0973 | –
[2], arabinose 90744 nM | 0.282 | 0.238 | 0.205 | 0.155 | 0.0906 | 0.075 | –
[2], arabinose 163340 nM | 0.245 | 0.22 | 0.207 | 0.163 | 0.11 | 0.108 | –
[2], arabinose 294012 nM | 0.224 | 0.222 | 0.201 | 0.151 | 0.0517 | 0.0476 | –
[2], arabinose 529221 nM | 0.189 | 0.16 | 0.141 | 0.123 | 0.0936 | 0.139 | –
[2], arabinose 952599 nM | 0.139 | 0.112 | 0.103 | 0.132 | 0.0957 | 0.0506 | 0.108
[2], arabinose 1714678 nM | 0.118 | 0.104 | 0.106 | 0.112 | 0.124 | 0.147 | 0.119
[2], arabinose 3086420 nM | 0.119 | 0.108 | 0.114 | 0.103 | 0.0984 | 0.114 | 0.111
[2], arabinose 5555556 nM | 0.128 | 0.112 | 0.119 | 0.119 | 0.0951 | 0.0913 | 0.0621
[2], arabinose 10000000 nM | 0.122 | 0.118 | 0.1329 | 0.118 | 0.13 | 0.117 | –

N=C(N)c1ccc(OCCCCCOc2ccc(C(=N)N)cc2)cc1 [Pentamidine] (TESEC target enzyme: Mtb DapB)
growth
Details | drug 0.7 µM | drug 1.5 µM | drug 3.5 µM | drug 7.8 µM | drug 17.6 µM | drug 39.5 µM | drug 88.9 µM
[1], arabinose 15560 nM | 0.117 | 0.131 | – | – | – | – | –
[1], arabinose 28008 nM | 0.207 | 0.18 | – | – | – | – | –
[1], arabinose 50414 nM | 0.186 | 0.187 | – | – | – | – | –
[1], arabinose 90744 nM | 0.207 | 0.195 | – | – | – | – | –
[1], arabinose 163340 nM | 0.225 | 0.21 | – | – | – | – | –
[1], arabinose 294012 nM | 0.218 | 0.235 | – | – | – | – | –
[1], arabinose 529221 nM | 0.208 | 0.192 | – | – | – | – | –
[1], arabinose 952599 nM | 0.2 | 0.225 | – | – | – | – | –
[1], arabinose 1714678 nM | 0.16 | 0.182 | – | – | – | – | –
[1], arabinose 3086420 nM | 0.133 | 0.153 | – | – | – | – | –
[1], arabinose 5555556 nM | 0.131 | 0.146 | – | – | – | – | –
[1], arabinose 10000000 nM | 0.127 | 0.124 | – | – | – | – | –
[2], arabinose 15560 nM | 0.275 | 0.32 | 0.321 | 0.289 | 0.269 | 0.258 | –
[2], arabinose 28008 nM | 0.317 | 0.309 | 0.301 | 0.293 | 0.231 | 0.259 | –
[2], arabinose 50414 nM | 0.321 | 0.318 | 0.304 | 0.291 | 0.235 | 0.233 | –
[2], arabinose 90744 nM | 0.29 | 0.289 | 0.305 | 0.312 | 0.261 | 0.246 | –
[2], arabinose 163340 nM | 0.311 | 0.319 | 0.308 | 0.271 | 0.257 | 0.256 | –
[2], arabinose 294012 nM | 0.207 | 0.29 | 0.277 | 0.313 | 0.271 | 0.249 | –
[2], arabinose 529221 nM | 0.168 | 0.225 | 0.257 | 0.302 | 0.257 | 0.251 | –
[2], arabinose 952599 nM | 0.163 | 0.141 | 0.201 | 0.236 | 0.221 | 0.239 | 0.206
[2], arabinose 1714678 nM | 0.137 | 0.161 | 0.193 | 0.18 | 0.179 | 0.231 | 0.161
[2], arabinose 3086420 nM | 0.13 | 0.149 | 0.156 | 0.185 | 0.113 | 0.145 | 0.157
[2], arabinose 5555556 nM | 0.125 | 0.126 | 0.177 | 0.203 | 0.12 | 0.136 | 0.16
[2], arabinose 10000000 nM | 0.115 | 0.151 | 0.13 | 0.16 | 0.129 | 0.131 | –

Nc1nc2ccc(OC(F)(F)F)cc2s1 [Riluzole] (TESEC target enzyme: Mtb Asd)
growth
Details | drug 1.7 µM | drug 3.9 µM | drug 8.7 µM | drug 19.5 µM | drug 43.9 µM | drug 98.8 µM | drug 222.2 µM
[1], arabinose 15560 nM | 0.165 | 0.155 | – | – | – | – | –
[1], arabinose 28008 nM | 0.133 | 0.157 | – | – | – | – | –
[1], arabinose 50414 nM | 0.166 | 0.157 | – | – | – | – | –
[1], arabinose 90744 nM | 0.192 | 0.171 | – | – | – | – | –
[1], arabinose 163340 nM | 0.22 | 0.199 | – | – | – | – | –
[1], arabinose 294012 nM | 0.261 | 0.239 | – | – | – | – | –
[1], arabinose 529221 nM | 0.271 | 0.263 | – | – | – | – | –
[1], arabinose 952599 nM | 0.28 | 0.312 | – | – | – | – | –
[1], arabinose 1714678 nM | 0.284 | 0.319 | – | – | – | – | –
[1], arabinose 3086420 nM | 0.246 | 0.237 | – | – | – | – | –
[1], arabinose 5555556 nM | 0.236 | 0.223 | – | – | – | – | –
[1], arabinose 10000000 nM | 0.215 | 0.224 | – | – | – | – | –
[2], arabinose 15560 nM | 0.226 | 0.226 | 0.232 | 0.219 | 0.202 | 0.188 | –
[2], arabinose 28008 nM | 0.2085 | 0.207 | 0.219 | 0.223 | 0.208 | 0.197 | –
[2], arabinose 50414 nM | 0.234 | 0.217 | 0.222 | 0.235 | 0.207 | 0.202 | –
[2], arabinose 90744 nM | 0.232 | 0.243 | 0.222 | 0.286 | 0.22 | 0.205 | –
[2], arabinose 163340 nM | 0.227 | 0.236 | 0.232 | 0.237 | 0.217 | 0.216 | –
[2], arabinose 294012 nM | 0.229 | 0.227 | 0.2601 | 0.231 | 0.221 | 0.216 | –
[2], arabinose 529221 nM | 0.227 | 0.236 | 0.226 | 0.208 | 0.221 | 0.231 | –
[2], arabinose 952599 nM | 0.2317 | 0.226 | 0.263 | 0.207 | 0.233 | 0.235 | 0.123
[2], arabinose 1714678 nM | 0.195 | 0.2 | 0.235 | 0.193 | 0.233 | 0.213 | 0.115
[2], arabinose 3086420 nM | 0.148 | 0.149 | 0.183 | 0.214 | 0.236 | 0.231 | 0.122
[2], arabinose 5555556 nM | 0.154 | 0.157 | 0.196 | 0.157 | 0.171 | 0.19 | 0.126
[2], arabinose 10000000 nM | 0.148 | 0.165 | 0.146 | 0.21 | 0.162 | 0.202 | –
